ChEMBL document CHEMBL5247592, “Discovery of novel VEGFR-2-PROTAC degraders based on the localization of lysine residues via recruiting VHL for the treatment of gastric cancer” (Eur J Med Chem, 2022)
Active and inactive are the calls of the source. No cut-off for these calls is given here.

Tests used:
HGC-27 [1] = assay: Antiproliferative activity against human HGC-27 cells assessed as inhibition of cell growth incubated for 72 hrs by MTT assay; assay type: functional, cell-based; conditions: HGC-27, 72 h
[2] = target: Vascular endothelial growth factor receptor 2 (Homo sapiens, UniProt P35968); assay: Inhibition of VEGFR2 (unknown origin) at 1 uM by caliper mobility shift assay relative to control
[3] = target: T1, von Hippel-Lindau disease tumor suppressor/Vascular endothelial growth factor receptor 2 (Homo sapiens, UniProt P35968+P40337); assay: PROTAC activity at VHL/VEGFR2 in HUVEC cells assessed as reduction in VEGFR2 protein level by measuring maximal efficacy at 0.007 to 10 uM incubated for 24 hrs by Western blot analysis relative to control; assay type: cell-based; conditions: dose 0.007-10 µM
[4] = target: T1, von Hippel-Lindau disease tumor suppressor/Vascular endothelial growth factor receptor 2; assay: PROTAC activity at VHL/VEGFR2 in human HGC-27 cells assessed as residual activity by measuring VEGFR2 expression level at 1 uM incubated for 24 hrs followed by compound washout and measured after 36 hrs by Western blot analysis relative to control; assay type: cell-based
[5] = target: T1, von Hippel-Lindau disease tumor suppressor/Vascular endothelial growth factor receptor 2; assay: PROTAC activity at VHL/VEGFR2 in human HGC-27 cells assessed as residual activity by measuring VEGFR2 expression level at 1 uM incubated for 24 hrs followed by compound washout and measured after 4 hrs by Western blot analysis relative to control; assay type: cell-based
[6] = target: T1, von Hippel-Lindau disease tumor suppressor/Vascular endothelial growth factor receptor 2; assay: PROTAC activity at VHL/VEGFR2 in human HGC-27 cells assessed as residual activity by measuring VEGFR2 expression level at 1 uM incubated for 24 hrs followed by compound washout and measured after 12 hrs by Western blot analysis relative to control; assay type: cell-based
[7] = target: T1, von Hippel-Lindau disease tumor suppressor/Vascular endothelial growth factor receptor 2; assay: PROTAC activity at VHL/VEGFR2 in human HGC-27 cells assessed as residual activity by measuring VEGFR2 expression level at 1 uM incubated for 24 hrs followed by compound washout and measured after 24 hrs by Western blot analysis relative to control; assay type: cell-based
[8] = target: T1, von Hippel-Lindau disease tumor suppressor/Vascular endothelial growth factor receptor 2; assay: PROTAC activity at VHL/VEGFR2 in human HGC-27 cells assessed as reduction in relative VEGRF2 expression level at 1 uM preincubated with 4-Amino-N-(6-(1-(2-((4-methyl-3-(trifluoromethyl)phenyl)amino)-2-oxoethyl)-1H-pyrazol-4-y1)-1H-indazol-3-Abenzamide for 2 hrs followed by compound addition and measured after 24 hrs by Western blot analysis; assay type: cell-based
[9] = target: T1, von Hippel-Lindau disease tumor suppressor/Vascular endothelial growth factor receptor 2; assay: PROTAC activity at VHL/VEGFR2 in human HGC-27 cells assessed as induction of VEGRF2 protein degradation at 1 uM preincubated with MG-132 for 2 hrs followed by compound addition and measured after 24 hrs by Western blot analysis; assay type: cell-based
[10] = target: T1, von Hippel-Lindau disease tumor suppressor/Vascular endothelial growth factor receptor 2; assay: PROTAC activity at VHL/VEGFR2 in human HGC-27 cells assessed as […] at 1 uM measured upto 24 hrs in the presence of cycloheximide by Western blot analysis; assay type: cell-based
[11] = Effect on VEGFR2 mRNA expression in human HGC-27 cells at 1 uM incubated for 24 hrs by qPCR analysis relative to control; assay type: functional
HGC-27 [12] = assay: Inhibition of colony formation in human HGC-27 cells incubated for 8 days by crystal violet staining based analysis; assay type: functional, cell-based; conditions: dose 0.033-3.33 µM, time 8.0 day
HGC-27 [13] = assay: Inhibition of cell migration in human HGC-27 cells measured upto 24 hrs by wound healing assay; assay type: functional, cell-based; conditions: dose 0.033-3.33 µM
HGC-27 [14] = assay: Inhibition of cell migration in human HGC-27 cells at 0.033 to 3.33 uM by wound healing assay; assay type: functional, cell-based; conditions: dose 0.033-3.33 µM, time <= 24.0 hrs, TDE = time-dependent effect
HGC-27 [15] = assay: Inhibition of cell migration in human HGC-27 cells assessed as suppression of cell migration at 3.3 uM incubated for 6 hrs by wound healing assay relative to control; assay type: functional
HGC-27 [16] = assay: Antiinvasive activity in human HGC-27 cells assessed as reduction in number of invasive cells at 0.1 uM incubated for 24 hrs by transwell invasion assay (reference value: 118); assay type: functional
HGC-27 [17] = assay: Induction of cell cycle arrest in human HGC-27 cells assessed as accumulation of cells at G2/M phase incubated for 24 hrs by PI staining based flow cytometric analysis; assay type: functional; conditions: dose 0.033-3.33 µM
HGC-27 [18] = assay: Induction of apoptosis in human HGC-27 cells assessed as late apoptotic cells at 0.1 uM incubated for 24 hrs by Annexin V-FITC/PI staining based analysis (reference value: 3%); assay type: functional
HGC-27 [19] = assay: Induction of apoptosis in human HGC-27 cells assessed as viable cells at 0.33 uM incubated for 24 hrs by Annexin V-FITC/PI staining based analysis (reference value: 95.3%); assay type: functional; conditions: read-out: Activity
HGC-27 [20] = assay: Induction of apoptosis in human HGC-27 cells assessed as viable cells at 1 uM incubated for 24 hrs by Annexin V-FITC/PI staining based analysis (reference value: 95.3%); assay type: functional; conditions: read-out: Activity
HGC-27 [21] = assay: Induction of apoptosis in human HGC-27 cells assessed as early apoptotic cells at 1 uM incubated for 24 hrs by Annexin V-FITC/PI staining based analysis (reference value: 1.7 %); assay type: functional
HGC-27 [22] = assay: Induction of apoptosis in human HGC-27 cells assessed as viable cells at 3.3 uM incubated for 24 hrs by Annexin V-FITC/PI staining based analysis (reference value: 95.3%); assay type: functional; conditions: read-out: Activity
HGC-27 [23] = assay: Induction of apoptosis in human HGC-27 cells assessed as early apoptotic cells at 3.3 uM incubated for 24 hrs by Annexin V-FITC/PI staining based analysis (reference value: 1.7 %); assay type: functional
HGC-27 [24] = assay: Induction of apoptosis in human HGC-27 cells assessed as late apoptotic cells at 3.3 uM incubated for 24 hrs by Annexin V-FITC/PI staining based analysis (reference value: 3%); assay type: functional
HGC-27 [25] = assay: Induction of apoptosis in human HGC-27 cells assessed as necrotic cells at 3.3 uM incubated for 24 hrs by Annexin V-FITC/PI staining based analysis (reference value: 0.65 %); assay type: functional
HGC-27 [26] = assay: Induction of cell cycle arrest in human HGC-27 cells assessed as G0/G1 phase cells at 0.033 uM incubated for 24 hrs by PI staining based flow cytometric analysis (reference value: 47.4%); assay type: functional
HGC-27 [27] = assay: Induction of cell cycle arrest in human HGC-27 cells assessed as G0/G1 phase cells at 0.1 uM incubated for 24 hrs by PI staining based flow cytometric analysis (reference value: 47.4%); assay type: functional
HGC-27 [28] = assay: Induction of cell cycle arrest in human HGC-27 cells assessed as G2/M phase cells at 0.1 uM incubated for 24 hrs by PI staining based flow cytometric analysis (reference value: 13.3%); assay type: functional
HGC-27 [29] = assay: Induction of cell cycle arrest in human HGC-27 cells assessed as S phase cells at 0.33 uM incubated for 24 hrs by PI staining based flow cytometric analysis (reference value: 26.4%); assay type: functional
HGC-27 [30] = assay: Induction of cell cycle arrest in human HGC-27 cells assessed as G2/M phase cells at 0.33 uM incubated for 24 hrs by PI staining based flow cytometric analysis (reference value: 13.3%); assay type: functional
HGC-27 [31] = assay: Induction of cell cycle arrest in human HGC-27 cells assessed as G0/G1 phase cells at 3.33 uM incubated for 24 hrs by PI staining based flow cytometric analysis (reference value: 47.4%); assay type: functional
HGC-27 [32] = assay: Induction of cell cycle arrest in human HGC-27 cells assessed as G2/M phase cells at 3.33 uM incubated for 24 hrs by PI staining based flow cytometric analysis (reference value: 13.3%); assay type: functional

T1 sequence (P35968 20-1356 limits assumed): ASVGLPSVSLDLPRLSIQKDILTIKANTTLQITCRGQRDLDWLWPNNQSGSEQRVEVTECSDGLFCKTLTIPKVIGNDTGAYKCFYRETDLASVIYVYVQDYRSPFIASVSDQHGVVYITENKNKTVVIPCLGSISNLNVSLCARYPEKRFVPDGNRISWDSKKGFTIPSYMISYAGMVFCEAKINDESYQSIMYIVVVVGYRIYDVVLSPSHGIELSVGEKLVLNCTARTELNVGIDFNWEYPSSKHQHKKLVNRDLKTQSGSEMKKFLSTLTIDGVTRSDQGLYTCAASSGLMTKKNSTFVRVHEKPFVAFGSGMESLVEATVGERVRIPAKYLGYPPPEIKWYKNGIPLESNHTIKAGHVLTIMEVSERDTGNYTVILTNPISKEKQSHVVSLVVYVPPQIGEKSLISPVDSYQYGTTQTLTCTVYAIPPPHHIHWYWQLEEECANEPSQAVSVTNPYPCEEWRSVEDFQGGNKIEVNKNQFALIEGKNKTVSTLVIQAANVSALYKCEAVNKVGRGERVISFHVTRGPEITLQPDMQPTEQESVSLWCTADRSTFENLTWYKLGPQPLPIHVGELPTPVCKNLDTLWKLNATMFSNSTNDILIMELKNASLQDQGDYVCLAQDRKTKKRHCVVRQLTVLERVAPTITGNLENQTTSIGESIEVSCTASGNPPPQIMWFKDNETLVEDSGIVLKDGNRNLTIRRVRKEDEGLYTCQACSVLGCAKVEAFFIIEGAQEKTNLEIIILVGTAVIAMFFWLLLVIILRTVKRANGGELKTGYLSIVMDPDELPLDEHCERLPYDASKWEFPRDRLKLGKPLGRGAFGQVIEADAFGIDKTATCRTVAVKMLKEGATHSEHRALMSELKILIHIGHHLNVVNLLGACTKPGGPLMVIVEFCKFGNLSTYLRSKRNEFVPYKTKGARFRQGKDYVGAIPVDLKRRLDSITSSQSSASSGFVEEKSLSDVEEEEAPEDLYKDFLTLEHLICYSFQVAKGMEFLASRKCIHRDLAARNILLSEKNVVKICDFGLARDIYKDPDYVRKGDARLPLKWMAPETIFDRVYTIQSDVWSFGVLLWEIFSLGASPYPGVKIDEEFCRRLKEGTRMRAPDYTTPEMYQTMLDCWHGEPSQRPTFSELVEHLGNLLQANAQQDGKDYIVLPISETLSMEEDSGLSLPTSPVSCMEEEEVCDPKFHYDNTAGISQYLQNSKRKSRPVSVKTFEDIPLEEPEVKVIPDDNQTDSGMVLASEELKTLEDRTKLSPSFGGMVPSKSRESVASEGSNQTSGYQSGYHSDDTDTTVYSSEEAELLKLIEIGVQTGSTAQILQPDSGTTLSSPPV
T1 sequence (P40337 whole entry partner): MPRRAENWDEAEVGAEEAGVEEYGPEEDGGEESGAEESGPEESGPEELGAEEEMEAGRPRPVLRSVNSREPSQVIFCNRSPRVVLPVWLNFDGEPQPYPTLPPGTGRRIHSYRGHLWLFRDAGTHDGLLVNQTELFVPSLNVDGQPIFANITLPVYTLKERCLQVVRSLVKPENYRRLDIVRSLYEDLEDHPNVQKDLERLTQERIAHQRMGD
Vascular endothelial growth factor receptor 2, sequence (P35968 whole entry): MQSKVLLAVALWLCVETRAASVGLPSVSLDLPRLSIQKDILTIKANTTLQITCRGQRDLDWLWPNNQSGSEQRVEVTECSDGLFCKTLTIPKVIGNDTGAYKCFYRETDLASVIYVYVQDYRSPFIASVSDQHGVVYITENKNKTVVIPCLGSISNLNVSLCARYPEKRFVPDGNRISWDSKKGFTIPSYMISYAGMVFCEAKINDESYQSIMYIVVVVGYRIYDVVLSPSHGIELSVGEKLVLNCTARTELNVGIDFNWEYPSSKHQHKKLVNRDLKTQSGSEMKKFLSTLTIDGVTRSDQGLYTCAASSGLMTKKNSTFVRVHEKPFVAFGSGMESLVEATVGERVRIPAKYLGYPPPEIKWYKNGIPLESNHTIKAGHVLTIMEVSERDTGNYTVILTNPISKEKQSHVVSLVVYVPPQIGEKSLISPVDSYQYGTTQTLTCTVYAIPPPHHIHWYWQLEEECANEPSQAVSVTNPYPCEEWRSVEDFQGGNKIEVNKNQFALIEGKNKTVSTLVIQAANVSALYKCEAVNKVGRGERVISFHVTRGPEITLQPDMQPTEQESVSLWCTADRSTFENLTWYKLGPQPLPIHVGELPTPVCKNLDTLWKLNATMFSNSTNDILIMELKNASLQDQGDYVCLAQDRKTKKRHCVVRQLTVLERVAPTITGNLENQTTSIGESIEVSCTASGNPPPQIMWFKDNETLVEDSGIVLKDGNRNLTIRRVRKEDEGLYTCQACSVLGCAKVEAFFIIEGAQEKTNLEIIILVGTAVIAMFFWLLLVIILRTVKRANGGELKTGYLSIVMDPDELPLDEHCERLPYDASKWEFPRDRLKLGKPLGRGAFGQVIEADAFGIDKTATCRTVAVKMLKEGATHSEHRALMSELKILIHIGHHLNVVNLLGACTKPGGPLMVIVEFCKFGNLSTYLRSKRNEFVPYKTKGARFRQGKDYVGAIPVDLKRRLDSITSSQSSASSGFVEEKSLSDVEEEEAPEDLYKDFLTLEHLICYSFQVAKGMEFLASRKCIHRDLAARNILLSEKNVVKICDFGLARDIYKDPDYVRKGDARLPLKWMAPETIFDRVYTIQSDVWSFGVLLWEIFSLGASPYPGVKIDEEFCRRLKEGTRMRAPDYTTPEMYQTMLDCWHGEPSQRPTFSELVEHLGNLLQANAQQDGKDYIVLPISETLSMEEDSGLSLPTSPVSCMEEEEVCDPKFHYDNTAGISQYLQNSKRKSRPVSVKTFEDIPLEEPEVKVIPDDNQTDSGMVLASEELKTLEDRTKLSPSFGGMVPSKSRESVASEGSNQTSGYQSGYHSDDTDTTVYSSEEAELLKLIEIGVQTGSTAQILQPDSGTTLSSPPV

SMILES: Cc1ccc(NC(=O)Cn2cc(-c3ccc4c(NC(=O)c5ccc(NC(=O)CCCCCCCCC(=O)N[C@H](C(=O)N6C[C@H](O)C[C@H]6C(=O)NCc6ccc(-c7scnc7C)cc6)C(C)(C)C)cc5)n[nH]c4c3)cn2)cc1C(F)(F)F
- IC50 (HGC-27 [1]): 2.03 µM
- inhibition [2]: 97.5%
- Emax [3]: 76.6%
- Activity [4]: 131%
- Activity [5]: 32.8%
- Activity [6]: 66.3%
- Activity [7]: 77%
- Activity [8]: inactive
- Activity [9]: inactive
- Activity [10]: Active
- Activity [11]: 91.3%
- inhibition (HGC-27 [12]): Dose-Dependent Effect
- inhibition (HGC-27 [13]): Dose-Dependent Effect
- inhibition (HGC-27 [14]): Tde
- inhibition at 3.3 µM (HGC-27 [15]): 12.3%
- Activity (HGC-27 [16]): 100
- Activity (HGC-27 [17]): Dose-Dependent Effect
- Activity (HGC-27 [18]): 4.2%
- viability at 0.33 µM (HGC-27 [19]): 89.1%
- viability at 1 µM (HGC-27 [20]): 76.5%
- Activity (HGC-27 [21]): 8.6%
- viability at 3.3 µM (HGC-27 [22]): 54%
- Activity (HGC-27 [23]): 15%
- Activity (HGC-27 [24]): 30.5%
- Activity (HGC-27 [25]): 0.52%
- Activity (HGC-27 [26]): 41.1%
- Activity (HGC-27 [27]): 44.3%
- Activity (HGC-27 [28]): 18.2%
- Activity (HGC-27 [29]): 23.4%
- Activity (HGC-27 [30]): 37.7%
- Activity (HGC-27 [31]): 14.1%
- Activity (HGC-27 [32]): 56.8%
